From patent US20230014445A1, “ALLOSTERIC CHROMENONE INHIBITORS OF PHOSPHOINOSITIDE 3-KINASE (PI3K) FOR THE TREATMENT OF DISEASE” (Petra Pharma Corporation, priority 2021, published 2023)

Legend:
[1] = target: T1, human full length PIK3KA H1047R mutant (p110α/p85α complex) (Homo sapiens, UniProt P42336, H1047R); test: PI3K-Alpha Kinase (PIK3CA) biochemical activity, H1047R mutant (ADP-Glo); settings: 20 uM ATP
T1 construct: Recombinant, catalytically active human full length PIK3KA Wild-type and H1047R mutant were purchased; 6xHis (N); purchased EMD Millipore Sigma 14-792M
T1 sequence (P42336 whole entry H1047R): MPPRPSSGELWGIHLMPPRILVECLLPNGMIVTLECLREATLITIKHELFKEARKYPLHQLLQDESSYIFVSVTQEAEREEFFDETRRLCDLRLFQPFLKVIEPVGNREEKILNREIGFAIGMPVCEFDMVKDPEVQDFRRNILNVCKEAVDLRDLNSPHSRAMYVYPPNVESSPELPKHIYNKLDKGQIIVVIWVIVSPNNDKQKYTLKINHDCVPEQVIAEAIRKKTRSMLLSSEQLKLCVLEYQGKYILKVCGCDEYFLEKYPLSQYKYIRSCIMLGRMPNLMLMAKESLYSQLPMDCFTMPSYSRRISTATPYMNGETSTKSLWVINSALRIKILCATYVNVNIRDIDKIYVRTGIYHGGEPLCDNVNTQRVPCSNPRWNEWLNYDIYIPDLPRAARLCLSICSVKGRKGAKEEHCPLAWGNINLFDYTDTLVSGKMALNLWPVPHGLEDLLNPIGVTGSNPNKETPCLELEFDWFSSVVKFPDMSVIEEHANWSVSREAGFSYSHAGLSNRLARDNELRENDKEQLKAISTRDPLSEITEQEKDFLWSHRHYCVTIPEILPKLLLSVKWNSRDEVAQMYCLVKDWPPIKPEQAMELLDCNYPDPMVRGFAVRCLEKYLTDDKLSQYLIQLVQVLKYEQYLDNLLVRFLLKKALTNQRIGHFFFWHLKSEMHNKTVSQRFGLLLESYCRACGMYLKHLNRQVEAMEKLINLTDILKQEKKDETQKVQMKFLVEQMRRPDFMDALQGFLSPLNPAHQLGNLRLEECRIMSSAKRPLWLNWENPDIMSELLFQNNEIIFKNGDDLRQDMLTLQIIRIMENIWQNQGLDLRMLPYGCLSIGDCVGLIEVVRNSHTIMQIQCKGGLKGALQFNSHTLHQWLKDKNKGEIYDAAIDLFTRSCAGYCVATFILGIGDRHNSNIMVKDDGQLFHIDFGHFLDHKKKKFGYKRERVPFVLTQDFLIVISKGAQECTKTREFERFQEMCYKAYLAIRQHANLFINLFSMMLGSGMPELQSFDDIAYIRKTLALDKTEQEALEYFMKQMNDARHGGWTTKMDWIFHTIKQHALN
T1 sequence (P27986 whole entry partner): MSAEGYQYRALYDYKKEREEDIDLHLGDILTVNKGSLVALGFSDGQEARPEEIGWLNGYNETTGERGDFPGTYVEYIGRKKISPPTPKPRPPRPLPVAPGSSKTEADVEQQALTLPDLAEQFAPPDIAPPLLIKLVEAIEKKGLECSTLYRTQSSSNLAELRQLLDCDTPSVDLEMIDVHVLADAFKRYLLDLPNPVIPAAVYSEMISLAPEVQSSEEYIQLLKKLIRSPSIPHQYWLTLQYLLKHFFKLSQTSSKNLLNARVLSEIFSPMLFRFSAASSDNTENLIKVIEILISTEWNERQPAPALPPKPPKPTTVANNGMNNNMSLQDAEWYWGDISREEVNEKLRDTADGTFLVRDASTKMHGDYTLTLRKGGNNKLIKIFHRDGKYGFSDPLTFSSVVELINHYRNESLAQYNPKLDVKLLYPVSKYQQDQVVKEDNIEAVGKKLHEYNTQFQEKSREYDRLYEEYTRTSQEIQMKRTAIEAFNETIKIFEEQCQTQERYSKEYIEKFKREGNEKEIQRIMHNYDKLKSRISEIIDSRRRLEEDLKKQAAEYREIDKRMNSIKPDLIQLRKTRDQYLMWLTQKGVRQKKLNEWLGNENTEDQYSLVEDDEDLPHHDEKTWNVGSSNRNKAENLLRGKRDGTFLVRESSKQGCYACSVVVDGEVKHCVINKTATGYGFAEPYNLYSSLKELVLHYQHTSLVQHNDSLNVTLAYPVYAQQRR
Text: (§1) PI3K-Alpha Kinase (PIK3CA) Activity, Wild-Type and H1047R Mutant and Determining IC50 Values for Inhibitors
(§2) Recombinant, catalytically active human full length PIK3KA Wild-type and H1047R mutant were purchased as 1:1 complex of N-terminal 6×his tagged p110α (catalytic) and untagged p85α, (regulatory subunit) from EMD Millipore Sigma (cat. no. 14-602M and 14-792M, respectively). PIP2diC8 (Avanti Polar Lipids Inc., cat. no. 850185) or Soy PI (Avanti Polar Lipids Inc., cat. No. 840044P) was used as lipid substrate. PIP2diC8 or PI lyophilized powder was dissolved in milliQ water to a concentration of 1 mM just before use. 10 mM stock compounds in DMSO were serially diluted 1:3 to generate a 10-point curve and plated using an acoustic liquid handler system (Echo 550 series instrument, Labcyte). A 10× intermediate compound plate (200 uM starting compound concentration and 10% DMSO) was prepared before starting the reaction. A typical reaction mixture (50 uL) comprised 40 mM HEPES buffer, pH 7.4, 25 mM MgCl2, 0.01% v/v triton-X-100, 1% v/v DMSO, 20 mM NaCl, 1-5 nM WT or H1047R PI3K protein, 20 uM ATP, and 50 uM PIP2diC8 or Soy PI. 1% DMSO buffer alone without test compound was employed as MAX control (full activity in the absence of any inhibitor), and no enzyme control was used to determine the level of background Adenosine 5′-diphosphate (ADP) (MIN control). First, Wild-type (WT) and H1047R mutant protein in kinase buffer with all components except ATP were incubated with or without compound at 27° C. for 1 h. After the pre-incubation, the reaction was initiated by the addition of […] (20 uM final concentration). The reaction was allowed to proceed until about 10% conversion of ATP (2 uM ADP) at 27° C. After that time, 5 uL of reaction was mixed with 5 uL of ADP-Kinase Glo Reagent (ADP-Glo Kinase assay kit, Promega cat. no. V9102) supplemented with MgCl2 10 mM to stop the reaction and deplete the remaining ATP for 40 min at room temperature. Then, 10 uL of Kinase Detection Reagent (ADP-Glo Kinase assay kit, Promega cat. no. V9102) was added to simultaneously convert ADP to ATP and allow the newly synthesized ATP to be measured using a luciferase/luciferin reaction. After 30 min at room temperature the light generated was measured using a luminometer (EnVision plate reader, Perkin Elmer). Process data through Genedata-Screener tool. Relative IC50 values are determined using luminescence units by calculating percent inhibition with respect to on-plate “MIN” and “MAX” controls. Data was analyzed using a 4-parameter nonlinear logistic equation (four-parameter logistic concentration-response curve):
(§3) Y=bot+[(top−bot)/1+(x/IC50)slope]
(§4) where Y=% inhibition, X=concentration yielding y % inhibition, Bottom=minimum value of y attained by curve, Top=maximum value of y attained by curve and Slope=steepness of curve at IC50.
(§5) % Inh=[(median Max−x/median Max−median Min)]·100
(§6) IC50: concentration of compound that reduces a given response (ligand binding, enzyme response) by 50%. IC50 relative: concentration giving half the compound's maximum response.
(§7) For IC50 values shown in Table A, “A” means IC50<0.5 μM; “B” means IC50 ranging between 0.5 μM and 1.0 μM; “C” means IC50 ranging between 1 μM and 5 μM; “D” means IC50 ranging between 5 μM and 10 μM; “E” means IC50>10 μM.

[2] = target: T2, human full length PIK3KA Wild-type (p110α/p85α complex) (Homo sapiens, UniProt P42336); test: PI3K-Alpha Kinase (PIK3CA) biochemical activity, wild-type (ADP-Glo); settings: 20 uM ATP
T2 construct: Recombinant, catalytically active human full length PIK3KA Wild-type and H1047R mutant were purchased; 6xHis (N); purchased EMD Millipore Sigma 14-602M
Text: as §1, §2, §3, §4, §5, §6, §7

IC50 ([1]; PIP2diC8 lipid substrate) [µM] | IC50 ([2]; PIP2diC8 lipid substrate) [µM] | IC50 ([1]; Soy PI lipid substrate) [µM] | IC50 ([2]; Soy PI lipid substrate) [µM] | SMILES
< 0.5 | < 0.5 | – | – | COc1ncc(-c2cc(=O)c3cc(C)cc(C(C)Nc4ccccc4C(=O)O)c3o2)cn1 (single isomer, unassigned) [Example 4, 2-[1-[2-(2-Methoxypyrimidin-5-yl)-6-methyl-4-oxo-chromen-8-yl]ethylamino]benzoic acid]
– | – | 0.5 to 1 | 5 to 10 | COc1ccnc(-c2cc(=O)c3cc(C)cc(C(C)Nc4ccccc4C(=O)O)c3o2)c1 (single isomer, unassigned) [Example 43, 2-[1-[2-(4-Methoxy-2-pyridyl)-6-methyl-4-oxo-chromen-8-yl]ethylamino]benzoic acid, Isomer 2,2,2,2-trifluoroacetic acid]
– | – | < 0.5 | 1 to 5 | Cc1cc(C(C)Nc2ccccc2C(=O)O)c2oc(-c3cn[nH]c3)cc(=O)c2c1 (single isomer, unassigned) [Example 51, 2-[1-[6-Methyl-4-oxo-2-(1H-pyrazol-4-yl)chromen-8-yl]ethylamino]benzoic acid, Isomer 2,2,2,2-trifluoroacetic acid]
– | – | < 0.5 | 1 to 5 | COc1cccc(-n2cc(-c3cc(=O)c4cc(C)cc(C(C)Nc5ccccc5C(=O)O)c4o3)cn2)c1 (single isomer, unassigned) [Example 53, 2-[1-[2-[1-(3-Methoxyphenyl)pyrazol-4-yl]-6-methyl-4-oxo-chromen-8-yl]ethylamino]benzoic acid, Isomer 2,2,2,2-trifluoroacetic acid]
– | – | < 0.5 | 1 to 5 | Cc1cc(C(C)Nc2ccccc2C(=O)O)c2oc(-c3cnn(-c4cccc(C#N)c4)c3)cc(=O)c2c1 (single isomer, unassigned) [Example 54, 2-[1-[2-[1-(3-Cyanophenyl)pyrazol-4-yl]-6-methyl-4-oxo-chromen-8-yl]ethylamino]benzoic acid, Isomer 2,2,2,2-trifluoroacetic acid]
– | – | < 0.5 | > 10 | Cc1cc(C(C)Nc2ccccc2C(=O)O)c2oc(-n3nccn3)cc(=O)c2c1 (single isomer, unassigned) [Example 57, 2-[1-[6-Methyl-4-oxo-2-(triazol-2-yl)chromen-8-yl]ethylamino]benzoic acid, Isomer 2,2,2,2-trifluoroacetic acid]
– | – | < 0.5 | 5 to 10 | Cc1cc(C(C)Nc2ccccc2C(=O)O)c2oc(-n3cccn3)cc(=O)c2c1 (single isomer, unassigned) [Example 58, 2-[1-(6-Methyl-4-oxo-2-pyrazol-1-yl-chromen-8-yl)ethylamino]benzoic acid, Isomer 2,2,2,2-trifluoroacetic acid]
< 0.5 | 1 to 5 | – | – | Cc1cc(C(C)Nc2ccccc2C(=O)O)c2oc(-n3ccnc3)cc(=O)c2c1 (single isomer, unassigned) [Example 59, 2-[1-(2-Imidazol-1-yl-6-methyl-4-oxo-chromen-8-yl)ethylamino]benzoic acid, Isomer 2,2,2,2-trifluoroacetic acid]
– | – | < 0.5 | 1 to 5 | Cc1cc(C(C)Nc2ccccc2C(=O)O)c2oc(-c3cnn(-c4cccnc4)c3)c(C)c(=O)c2c1 (single isomer, unassigned) [Example 63, 2-[1-[3,6-Dimethyl-4-oxo-2-[1-(3-pyridyl)pyrazol-4-yl]chromen-8-yl]ethylamino]benzoic acid, Isomer 1,2,2,2-trifluoroacetic acid]
– | – | < 0.5 | 1 to 5 | Cc1cc(C(C)Nc2ccccc2C(=O)O)c2oc(-c3cnn(-c4ccc(C#N)cc4)c3)cc(=O)c2c1 (single isomer, unassigned) [Example 64, 2-[1-2-[1-(4-Cyanophenyl)pyrazol-4-yl]-6-methyl-4-oxo-chromen-8-yl]ethylamino]benzoic acid, Isomer 2,2,2,2-trifluoroacetic acid]
– | – | < 0.5 | 0.5 to 1 | COc1cccc(-n2cc(-c3oc4c(C(C)Nc5ccccc5C(=O)O)cc(C)cc4c(=O)c3C)cn2)c1 (single isomer, unassigned) [Example 66, 2-[1-2-[1-(3-Methoxyphenyl)pyrazol-4-yl]-3,6-dimethyl-4-oxo-chromen-8-yl]ethylamino]benzoic acid, Isomer 1,2,2,2-trifluoroacetic acid]
– | – | < 0.5 | 1 to 5 | Cc1cc(C(C)Nc2ccccc2C(=O)O)c2oc(-c3ccccn3)c(C(F)(F)F)c(=O)c2c1 (single isomer, unassigned) [Example 67, 2-[1-[6-Methyl-4-oxo-2-(2-pyridyl)-3-(trifluoromethyl)chromen-8-yl]ethylamino]benzoic acid, Isomer 1,2,2,2-trifluoroacetic acid]
– | – | < 0.5 | 5 to 10 | Cc1c(-c2ccccn2)oc2c(C(C)Nc3ccccc3C(=O)O)cc(F)cc2c1=O (single isomer, unassigned) [Example 68, 2-[1-[6-Fluoro-3-methyl-4-oxo-2-(2-pyridyl)chromen-8-yl]ethylamino]benzoic acid, Isomer 1,2,2,2-trifluoroacetic acid]
– | – | < 0.5 | 0.5 to 1 | COc1ccc(-n2cc(-c3oc4c(C(C)Nc5ccccc5C(=O)O)cc(C)cc4c(=O)c3C)cn2)cc1 (single isomer, unassigned) [Example 69, 2-[1-[2-[1-(4-Methoxyphenyl)pyrazol-4-yl]-3,6-dimethyl-4-oxo-chromen-8-yl]ethylamino]benzoic acid, Isomer 1,2,2,2-trifluoroacetic acid]
– | – | < 0.5 | 0.5 to 1 | Cc1cc(C(C)Nc2ccccc2C(=O)O)c2oc(-c3cccc(C(F)F)n3)c(C)c(=O)c2c1 (single isomer, unassigned) [Example 77, 2-[1-[2-[6-(Difluoromethyl)-2-pyridyl]-3,6-dimethyl-4-oxo-chromen-8-yl]ethylamino]benzoic acid, Isomer 1,2,2,2-trifluoroacetic acid]
– | – | < 0.5 | 5 to 10 | Cc1cc(C(C)Nc2ccccc2C(=O)O)c2oc(-c3cnn(-c4ccc(C(F)(F)F)cc4)c3)cc(=O)c2c1 (single isomer, unassigned) [Example 87, 2-[1-[6-Methyl-4-oxo-2-[1-[4-(trifluoromethyl)phenyl]pyrazol-4-yl]chromen-8-yl]ethylamino]benzoic acid, Isomer 2,2,2,2-trifluoroacetic acid]
– | – | < 0.5 | 1 to 5 | Cc1cc(C(C)Nc2ccccc2C(=O)O)c2oc(-c3cnn(-c4ccc(S(C)(=O)=O)cc4)c3)cc(=O)c2c1 (single isomer, unassigned) [Example 88, 2-[1-[6-Methyl-2-[1-(4-methylsulfonylphenyl)pyrazol-4-yl]-4-oxo-chromen-8-yl]ethylamino]benzoic acid, Isomer 2,2,2,2-trifluoroacetic acid]
– | – | 0.5 to 1 | > 10 | Cc1cc(C(C)Nc2ccccc2C(=O)O)c2oc(-c3cnn(-c4ccc5c(c4)OC(F)(F)O5)c3)cc(=O)c2c1 (single isomer, unassigned) [Example 91, 2-[1-[2-[1-(2,2-Difluoro-1,3-benzodioxol-5-yl)pyrazol-4-yl]-6-methyl-4-oxo-chromen-8-yl]ethylamino]benzoic acid, Isomer 2,2,2,2-trifluoroacetic acid]
